{
  "source": "patent US20230285450A1",
  "about": "(priority 2020, published 2023)",
  "key": {"S. aureus": {"system": "S. aureus", "assay": "Sterilization test of nitrogen oxide solutions without plasma", "type": "cell-based", "conditions": "ionized nitrogen oxide solutions without plasma", "procedure": "(§1) In order to confirm a sterilization effect of nitrogen oxides without plasma, ionized NO, NO2 and NO3 solutions were prepared and then sterilization experiments of S. typhimurium, S. aureus and E. coli were tested."}, "S. typhimurium": {"system": "S. typhimurium", "assay": "Sterilization test of nitrogen oxide solutions without plasma", "type": "cell-based", "conditions": "ionized nitrogen oxide solutions without plasma", "procedure": "as §1"}, "E. coli": {"system": "E. coli", "assay": "Sterilization test of nitrogen oxide solutions without plasma", "type": "cell-based", "conditions": "ionized nitrogen oxide solutions without plasma", "procedure": "as §1"}, "cells": {"system": "cells", "assay": "Annexin V/PI toxicity evaluation", "type": "cell-based", "conditions": "spots in upper right end indicate dead cells"}, "[1]": {"system": "bovine cornea (eye mucosa irritation)", "source_text": "The BCOP assay is a test to evaluate an irritation index for the eye mucosa using opacity and permeability. […] An in vitro irritancy score (IVIS) may be calculated by measuring the opacity and permeability, and the IVIS value may be calculated by [Equation 3].\nIVIS=Mean opacity unit[…] [Equation 3]"}, "[2]": {"system": "SKINETHIC™ human skin model", "assay": "Skin irritation test", "type": "cell-based", "conditions": "relative to negative control group (PBS)", "procedure": "In the skin irritation test, the absorbance was measured for a […]™ human skin model, and a cell viability value (%) was calculated using [Equation 4] to [Equation 6].\nCell viability (%) of negative control group=[absorbance of negative control group/absorbance of negative control group]×100 [Equation 4]\nCell viability (%) of positive control group=[absorbance of positive control group/absorbance of negative control group]×100 [Equation 5]"}},
  "note": "Counter-ions that a name gives are not always drawn.",
  "data": [
    {"smiles": "O=NO", "note": "[NO2]", "values": [
      {"measurement": "sterilization effect", "setting": "S. aureus", "value": "no sterilization effect was observed"},
      {"measurement": "sterilization effect", "setting": "S. typhimurium", "value": "no sterilization effect was observed"},
      {"measurement": "sterilization effect", "setting": "E. coli", "value": "no sterilization effect was observed"}
    ]},
    {"smiles": "OO", "note": "[H2O2, hydrogen peroxide]", "values": [
      {"measurement": "Annexin V/PI toxicity", "setting": "cells", "value": "many spots were present in the upper right end"}
    ]},
    {"smiles": "O=[N+]([O-])O", "note": "[NO3]", "values": [
      {"measurement": "sterilization effect", "setting": "S. aureus", "value": "no sterilization effect was observed"},
      {"measurement": "sterilization effect", "setting": "S. typhimurium", "value": "no sterilization effect was observed"},
      {"measurement": "sterilization effect", "setting": "E. coli", "value": "no sterilization effect was observed"}
    ]},
    {"smiles": "CN(C)CCCN1c2ccccc2Sc2ccc(Cl)cc21", "note": "[chlorpromazine hydrochloride]", "values": [
      {"measurement": "phototoxicity conclusion", "setting": "BALB/3T3 clone A31 cells", "value": "phototoxicity was shown"},
      {"measurement": "mean photo effect (MPE)", "setting": "BALB/3T3 clone A31 cells; mouse", "value": 0.418},
      {"measurement": "photo irritation factor (PIF)", "setting": "BALB/3T3 clone A31 cells; mouse", "value": 18.882}
    ]},
    {"smiles": "CCO", "note": "[ethyl alcohol]", "values": [
      {"measurement": "corneal opacity (appearance)", "setting": "[1]", "value": "completely opaque"},
      {"measurement": "IVIS (in vitro irritancy score)", "setting": "[1]; bovine", "value": "39.4 ± 3.6"},
      {"measurement": "Opacity unit", "setting": "[1]; bovine", "value": "19.9 ± 0.6"},
      {"measurement": "Transmittance (Absorbance (OD490))", "setting": "[1]; bovine", "value": "1.300 ± 0.203"}
    ]},
    {"smiles": "CCCCCCCCCCCCOS(=O)(=O)[O-].[Na+]", "note": "[sodium dodecyl sulfate]", "values": [
      {"measurement": "cell viability", "setting": "[2]", "value": "about 1.1%"}
    ]}
  ]
}
